Values joined by “and” are separate entries in the source; they are usually repeats but may differ in a detail not shown here. Identical values can stand only once. Like-named read-outs stand apart in the source and are kept apart here. Marks after values point to notes of the source that are not given here.
Legend:
[1] = Histopathological study of sciatic nerve (Wallerian degeneration); details: CCI or sham rats; hematoxylin and eosin, light microscopy
[2] = Mechanical allodynia dose-response in CCI rats (von Frey filaments, % MPE); type: in vivo, rat; details: 7 days post-CCI
[3] = General behavioral evaluation of the nervous system (placing/stepping, righting, pinna, corneal reflexes; signs of CNS depression)
[4] = Spontaneous withdrawal symptoms to morphine; type: in vivo, rat; details: JM-20 co-treatment; day 1 of withdrawal after chronic morphine
Description: In this experiment we studied some somatic behaviors and symptoms in the rat associated with spontaneous withdrawal to morphine (jumping or escape attempts, tremors, mastication, piloerection, head shaking).

[5] = 22 rpm, mean ± SEM, n = 6
Description: Young rats (8-10 weeks) Sprague Dawley (SD) (males, 168-240 g) from the National Center for the Production of Laboratory Animals (CENPALAB, Havana, Cuba) were used, adapted for seven days to the conditions of the laboratory. The animals were kept under an alternating cycle of light and dark every 12 h, the temperature was controlled between 25-27° C. and an EMO 1001 diet established for the laboratory animals. After the adaptation period, the animals were distributed in the different groups according to their body weights. Water and food were kept available ad libitum. […] To induce tolerance/hyperalgesia to morphine, it was administered to the animals subcutaneously (10 mg/kg, 1 mUkg, s.c.) twice a day every 12 h for 10 days or saline solution (Cao, J L et al. 2005 Pharmacol Biochem and Behay. 80: 493-503), after oral administration of JM-20 or its vehicle, carboxymethylcellulose (0.5% CMC in distilled water, 10mUkg, p.o.) 1h before. Correspondingly, the following groups were constituted: CMC-SS (n=6), CMC-MOR (n=6), JM-20-SS (n=6), JM-20 (5mg/kg)-MOR (n=6) and JM-20 (20mg/kg)-MOR (n=6).

[6] = Thermal hypernociception in CCI rats (Hargreaves test, % MPE); type: in vivo, rat; details: for % MPE, thermal hypernociception: first administration
[7] = Intensity of mechanical hypernociception (electronic von Frey) in CCI or sham rats after chronic morphine or saline
[8] = Mechanical hypernociception dose-response in CCI rats (electronic von Frey, % MPE); type: in vivo, rat; details: for ED50: Rattus norvegicus, 168 h, single dose, doses given in mg/kg
[9] = Morphine-induced tolerance/hyperalgesia in healthy rats (von Frey filaments, electronic von Frey, hot plate, formalin test); type: in vivo, rat
Description: (NIH Publication No. 85-23, revised 1996).

[10] = day 1, 45 min after first morphine or saline dose, 105 min after JM-20 (20 mg/kg, p.o.) or CMC
[11] = day 5, 45 min after morphine or saline, 105 min after JM-20 (20 mg/kg, p.o.) or CMC
[12] = day 1, 45 min after first dose of morphine or saline, 105 min after JM-20 (20 mg/kg, p.o.) or CMC
[13] = day 5, 45 min after morphine or saline dose, 105 min after JM-20 (20 mg/kg, p.o.) or CMC

SMILES: CCOC(=O)C1=C(C)NC2=C(C=Nc3ccccc3N2)C1c1ccccc1[N+](=O)[O-] (centres unmarked) [JM-20, 3-ethoxycarbonyl-2-methyl-4-(2-nitrophenyl)-4,11-dihydro-1H-pyrido [2,3-b] [1,5] benzodiazepine]
- Qualitative histopathological changes of the sciatic nerve (Wallerian degeneration, cellularity) [1]: still exerts its neuroprotective effect
- % MPE, mechanical allodynia ([2]; JM-20 2.5 mg/kg p.o., 1 h after first administration): 24.97±8.5%
- % MPE, mechanical allodynia ([2]; JM-20 5 mg/kg p.o., 1 h after first administration): 50.21±7.6%
- % MPE, mechanical allodynia ([2]; JM-20 10 mg/kg p.o., 1 h after first administration): 48.68±7.6%
- % MPE, mechanical allodynia ([2]; JM-20 20 mg/kg p.o., 1 h after first administration): 64.25±9.7%
- ED50 ([2]; Rattus norvegicus, po, 168 h, JM-20 p.o., single dose, doses given in mg/kg): 8.44 ± 1.9 mg/kg
- Corneal reflex, % of animals showing the reflex [3, 10]: 100%
- Pinna reflex, % of animals showing the reflex [3, 10]: 100%
- Placing/stepping reflex, % of animals showing the reflex [3, 10]: 100%
- Righting reflex, % of animals showing the reflex [3, 10]: 100%
- Corneal reflex, % of animals showing the reflex [3, 11]: 100%
- Pinna reflex, % of animals showing the reflex [3, 11]: 100%
- Placing/stepping reflex, % of animals showing the reflex [3, 11]: 100%
- Righting reflex, % of animals showing the reflex [3, 11]: 100%
- Corneal reflex, % of animals showing the reflex ([3]; day 11, without medications): 100%
- Pinna reflex, % of animals showing the reflex ([3]; day 11, without medications): 100%
- Placing/stepping reflex, % of animals showing the reflex ([3]; day 11, without medications): 100%
- Righting reflex, % of animals showing the reflex ([3]; day 11, without medications): 100%
- Spontaneous somatic withdrawal symptoms after withdrawal of morphine [4]: significantly reduced
- Rota-rod motor performance (Latency sec) [5, 12]: 59 ± 0.5^b sec
- Rota-rod motor performance (Latency sec) [5, 13]: 59 ± 0.5 s
- Rota-rod motor performance (Latency sec) ([5]; day 11, without medications): 60 s
- Effect on withdrawal thresholds in the Hargreaves test ([6]; JM-20 2.5-20 mg/kg p.o., after first administration or repeated doses at 14 days post-CCI): did not increase withdrawal thresholds significantly
- Intensity of mechanical hypernociception, difference (Δ) of the withdrawal threshold ([7]; CCI rats, SS s/c + JM-20 10 mg/kg p.o. for 5 days, day 11 post-surgery, 6 hours after last JM-20, 10 mg/kg): 10.68±5.89 grams and 10.68 ± 5.89*≠ grams
- Intensity of mechanical hypernociception, difference (Δ) of the withdrawal threshold ([7]; CCI rats, SS s/c + JM-20 10 mg/kg p.o. for 5 days, day 23 post-surgery, 12 days after discontinuation of JM-20, 10 mg/kg): 5.93±2.65 grams and 5.93 ± 2.65*≠ grams
- Intensity of mechanical hypernociception, difference (Δ) of the withdrawal threshold ([7]; CCI rats, saline (SS) s/c + JM-20 10 mg/kg p.o. group, day 7 post-surgery, prior to start of treatments): 41.55 ± 1.50 grams
- % MPE, intensity of mechanical hypernociception ([8]; JM-20 2.5 mg/kg p.o., 60 minutes after first dose, 7 days post-CCI): 32.26±4.2%
- % MPE, intensity of mechanical hypernociception ([8]; JM-20 2.5 mg/kg p.o., 14 days post-CCI after repeated doses): 40.86±7.1%
- % MPE, intensity of mechanical hypernociception ([8]; JM-20 5 mg/kg p.o., 60 minutes after first dose, 7 days post-CCI): 48.02±6.3%
- % MPE, intensity of mechanical hypernociception ([8]; JM-20 5 mg/kg p.o., 14 days post-CCI after repeated doses): 38.13±9.4%
- % MPE, intensity of mechanical hypernociception ([8]; JM-20 10 mg/kg p.o., 60 minutes after first dose, 7 days post-CCI): 39.20±7.9%
- % MPE, intensity of mechanical hypernociception ([8]; JM-20 10 mg/kg p.o., 14 days post-CCI after repeated doses): 46.18±5.7%
- % MPE, intensity of mechanical hypernociception ([8]; JM-20 20 mg/kg p.o., 60 minutes after first dose, 7 days post-CCI): 58.15±7.3%
- % MPE, intensity of mechanical hypernociception ([8]; JM-20 20 mg/kg p.o., 14 days post-CCI after repeated doses): 55.28±8.3%
- Neuroadaptations (tolerance/hyperalgesia) after repeated administration ([8]; JM-20 p.o. for 8 days, mechanical hypernociception at days 14, 15-16 post-CCI): neuroadaptations (tolerance/hyperalgesia) were not observed
- ED50 ([8]; po, JM-20 p.o., 7 days post-CCI): 12.4 ± 6.4 mg/kg
- Response to mechanical and thermal stimuli versus control group (CMC-SS) ([9]; JM-20-SS group, non-injured rats): did not show differences
- Thermal hyperalgesia (PWL, hot plate test) ([9]; healthy rats, chronic morphine + JM-20 co-treatment, at 11 days): prevented thermal hyperalgesia
- Percentage response to 4 g VFF and 15 g VFF and withdrawal threshold (Δ) ([9]; healthy rats, morphine 10 mg/kg s.c. twice a day for 10 days, JM-20 p.o. co-treatment 1 h before): significantly reduced
- Nociceptive scores in the 5% formalin test ([9]; tolerant/hyperalgesic rats, day 11, test dose of morphine 5 mg/kg i.p., both phases): significantly improved nociceptive scores

SMILES: NCC1(CC(=O)O)CCCCC1 [gabapentin]
- Qualitative histopathological changes of the sciatic nerve (Wallerian degeneration, cellularity) [1]: decrease in these alterations

SMILES: CN1CC[C@]23c4c5ccc(O)c4O[C@H]2[C@@H](O)C=C[C@H]3[C@H]1C5 [morphine, reference compound]
- Qualitative histopathological changes of the sciatic nerve (Wallerian degeneration, cellularity) [1]: minimal increase in cellularity
- % MPE, mechanical allodynia ([2]; morphine 10 mg/kg s.c., first administration): 100%
- Corneal reflex, % of animals showing the reflex [3, 10]: 100%
- Pinna reflex, % of animals showing the reflex [3, 10]: 100%
- Placing/stepping reflex, % of animals showing the reflex [3, 10]: 100%
- Righting reflex, % of animals showing the reflex [3, 10]: 100%
- Corneal reflex, % of animals showing the reflex [3, 11]: 100%
- Pinna reflex, % of animals showing the reflex [3, 11]: 100%
- Placing/stepping reflex, % of animals showing the reflex [3, 11]: 100%
- Righting reflex, % of animals showing the reflex [3, 11]: 100%
- Corneal reflex, % of animals showing the reflex ([3]; day 11, without medications): 100%
- Pinna reflex, % of animals showing the reflex ([3]; day 11, without medications): 100%
- Placing/stepping reflex, % of animals showing the reflex ([3]; day 11, without medications): 100%
- Righting reflex, % of animals showing the reflex ([3]; day 11, without medications): 100%
- Rota-rod motor performance (Latency sec) [5, 12]: 16 ± 1.9^a sec
- Rota-rod motor performance (Latency sec) [5, 13]: 57 ± 1.8 s
- Rota-rod motor performance (Latency sec) ([5]; day 11, without medications): 60 s
- ED50 ([6]; Rattus norvegicus, sc, 168 h, morphine s.c., single dose, 7 days post-CCI, doses given in mg/kg): 3.17 ± 0.4 mg/kg
- % MPE, thermal hypernociception ([6]; morphine 3 mg/kg s.c., 7 days post-CCI): 30.0±13%
- % MPE, thermal hypernociception ([6]; morphine 10 mg/kg s.c., 7 days post-CCI): 95.69±3.4%
- Intensity of mechanical hypernociception, difference (Δ) of the withdrawal threshold ([7]; CCI rats, morphine group (vehicle p.o.), day 7 post-surgery, prior to start of treatments): 41.22±1.58 grams
- Intensity of mechanical hypernociception, difference (Δ) of the withdrawal threshold ([7]; CCI rats, morphine group (vehicle p.o.), day 7 post-surgery, prior to start of treatments, listed as MOR): 41.22 ± 1.58 grams
- Intensity of mechanical hypernociception, difference (Δ) of the withdrawal threshold ([7]; Sham CCI rats, morphine group, day 7 post-surgery, prior to start of treatments): 2.06 ± 2.96≠ grams
- ED50 ([8]; sc, morphine s.c., 7 days post-CCI): 5.63 ± 0.8 mg/kg
- % MPE, intensity of mechanical hypernociception ([8]; morphine 3 mg/kg s.c., 14 days post-CCI after 8 repeated doses): 1.36±0.5%
- % MPE, intensity of mechanical hypernociception ([8]; morphine 3 mg/kg s.c., first administration, 7 days post-CCI): 17.67±2.8%
- % MPE, intensity of mechanical hypernociception ([8]; morphine 5 mg/kg s.c., 14 days post-CCI after 8 repeated doses): 6.10±1.0%
- % MPE, intensity of mechanical hypernociception ([8]; morphine 5 mg/kg s.c., first administration, 7 days post-CCI): 48.05±2.9%
- % MPE, intensity of mechanical hypernociception ([8]; morphine 10 mg/kg s.c., 14 days post-CCI after 8 repeated doses): 14.18±4.7%
- % MPE, intensity of mechanical hypernociception ([8]; morphine 10 mg/kg s.c., first administration, 7 days post-CCI): 72.22±4.6%

From patent publication US20230054379A1, “COMPOSITION AND METHOD OF TREATMENT TO SIMU[…] THE […] EFFICACY OF OPIOIDS AND REDUCE THEIR ADDICTIVE POWER” (Centro de Investigacion Y Desarrollo de Medicamentos (CIDEM), priority 2020, published 2023)
